Laboratory results published in publication PMC7501296, “Rapid and direct control of target protein levels with VHL-recruiting dTAG molecules” (Nature Communications, 2020).
“And” between values parts separate entries of the source, which are not always exact repeats. Identical values can stand only once.

Columns and labels:
[1] = tested on: PATU-8902 LACZ-FKBP12^F36V clone; assay: Quantitative MS proteomics, PATU-8902 LACZ-FKBP12F36V clone; format: cell-based, Homo sapiens; conditions: for TMT intensity per TMT channel: PATU-8902 LACZ-FKBP12F36V samples, biological replicates
Procedure: Cell pellets from PATU-8902 and EWS502 cells were lysed using 8 M urea, 200 mM 4-(2-hydroxyethyl)-1-piperazinepropanesulfonic acid (EPPS) at pH 8.5 with protease inhibitors. Samples were further homogenized and DNA was sheered via sonication using a probe sonicator (20 × 0.5 s pulses; level 3). Total protein was determined using a BCA assay and stored at −80 °C until future use. A total of 100 µg of protein was aliquoted for each condition and TMT channel for further downstream processing. Protein extracts were reduced using 10 mM dithiothreitol (DTT) for 30 min at room temperature. Next, samples were alkylated with 20 mM iodoacetamide for 45 min in the dark at room temperature. To facilitate the removal of incompatible reagents, proteins were precipitated using chloroform methanol. Briefly, to 100 µL of each sample, 400 µL of methanol was added, followed by 100 µL of chloroform with thorough vortexing. Next, 300 µL of HPLC grade water was added and samples were vortexed thoroughly. Each sample was centrifuged at 14,000 × g for 5 min at room temperature. The upper aqueous layer was removed and the protein pellet was washed twice with methanol and centrifuged at 14,000 × g for 5 min at room temperature. Protein pellets were resolubilized in 200 mM EPPS buffer and digested overnight with Lys-C (1:100, enzyme:protein ratio) at room temperature. The next day, trypsin (1:100 ratio) was added and incubated at 37 °C for an additional 6 h in a ThermoMixer set to 1000 RPM.
To each digested sample, 30% anhydrous acetonitrile was added and 100 µg of peptides were labeled using 200 µg of TMT reagent (TMT1-TMT11). Following labeling, a 5% hydroxylamine solution was used to quench excess TMT reagent. To equalize protein loading, a ratio check was performed by pooling 2 µg of each TMT-labeled sample. Samples were pooled and desalted using in-house packed C18 StageTips and analyzed by LC-MS/MS. Normalization factors were calculated from this label check, samples were mixed 1:1 across all TMT channels and desalted using a 100 mg Sep-Pak solid phase extraction cartridge. Eluted pooled peptides were further fractionated with basic-pH reverse-phase (bRP) HPLC using an Agilent 300 extend C18 column and collected into a 96 deep-well plate. Samples were consolidated into 24 fractions, and 12 nonadjacent fraction were desalted using StageTips prior to analyses using LC-MS/MS[35]–[37].
All mass spectrometry data was acquired using an Orbitrap Fusion mass spectrometer in-line with a Proxeon NanoLC-1000 UHPLC system. Peptides were separated using an in-house 100 µm capillary column packed with 40 cm of Accucore 150 resin (2.6 µm, 150 Å) (Thermo Fisher Scientific) using a 180 min LC gradient per fraction. Eluted peptides were acquired using synchronous precursor selection (SPS-MS3) method for TMT quantification. Briefly, MS1 spectra were acquired at 120 K resolving power with a maximum of 50 ms in the Orbitrap. MS2 spectra were acquired by selecting the top ten most abundant features via collisional induced dissociation (CID) in the ion trap using an automatic gain control (AGC) of 15 K, quadrupole isolation width of 0.7 m/z and a maximum ion time of 100 ms. For MS3 acquisition, a synchronous precursor selection of ten fragment ions was acquired with an AGC of 150 K for 150 ms and a normalized collision energy of 55.
All acquired raw data were converted to mzXML using Raw File Reader (v3.0.77). Spectra were processed using Comet (2019.01.5)[39]–[41], search results were filtered using the LDA function MASS Package in R, and data were processed using an in-house informatics pipeline[42]–[44]. Custom code was not developed in this study. Briefly, peptide spectral libraries were first filtered to a peptide false discovery rate (FDR) of less than 1% using linear discriminant analysis employing a target decoy strategy. […]

[2] = tested on: PATU-8902 FKBP12^F36V-KRAS^G12V; KRAS^-/- clone; assay: Antiproliferation, PATU-8902 FKBP12F36V-KRASG12V; KRAS-/- clone, 2D-monolayer (CellTiter-Glo); format: cell-based
[3] = target: T1, FKBP12^F36V-Nluc (Homo sapiens, UniProt P62942, F37V); assay: FKBP12F36V-Nluc dual luciferase assay (293FT); format: cell-based; conditions: 293FT, 24 h
T1 construct: expressed in transfected cells; host or cells: 293FT
Summary of the method: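 293FT cells expressing FKBP12^WT-Nluc or FKBP12^F36V-Nluc with Fluc were treated with compound for 24 h at 37 °C. Fluc, then Nluc, luminescence was read with Dual-Glo reagents. Values are DMSO-normalised Nluc/Fluc ratios.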

[4] = protein LACZ-FKBP12F36V, 500 nM, 4 h

T1 sequence (P62942 2-108 F37V limits assumed): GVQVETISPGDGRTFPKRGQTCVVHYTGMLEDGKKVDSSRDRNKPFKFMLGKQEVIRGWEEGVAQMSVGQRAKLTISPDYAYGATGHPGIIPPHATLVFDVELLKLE

CC[C@H](C(=O)N1CCCC[C@H]1C(=O)O[C@H](CCc1ccc(OC)c(OC)c1)c1ccccc1OCC(=O)NCCCCCCC(=O)N[C@H](C(=O)N1C[C@H](O)C[C@H]1C(=O)N[C@@H](C)c1ccc(-c2scnc2C)cc1)C(C)(C)C)c1cc(OC)c(OC)c(OC)c1 [dTAG^V-1]
Protein levels of VHL or VHL-regulated targets ([1]; 500 nM, 4 h): No significant changes | log2 (Fold change) compared to DMSO ([1]; protein BCAR3, 500 nM, 4 h): 0.1578 | TMT intensity per TMT channel ([1]; protein CDK12): 2772.29 and 2668.65 and 2839.83 | log2 (Fold change) compared to DMSO ([1]; protein CYBA, 500 nM, 4 h): -0.2931 | TMT intensity per TMT channel ([1]; protein INCENP): 2143.95 and 2638.07 and 2856.47 | TMT intensity per TMT channel ([1]; protein IRS2): 352.3 and 336.062 and 338.748 | Fold change < -2 [1, 4]: + (Fold change in which '+' refers to fold change < -2.) | log2 (Fold change) compared to DMSO [1, 4]: -1.082 | log2 (Fold change) compared to DMSO ([1]; protein RAB18, 500 nM, 4 h): -0.08378 | log2 (Fold change) compared to DMSO ([1]; protein SEPTIN10, 500 nM, 4 h): 0.1418 | TMT intensity per TMT channel ([1]; protein SLC12A2): 1789.71 and 1681.54 and 1827.76 | TMT intensity per TMT channel ([1]; protein SLC15A4): 231.802 and 205.301 and 235.055 | DMSO-normalized antiproliferation ([2]; log10[compound] (M) -4.69897): 20.6105 and 17.3638 and 20.4315 and 22.7846 | DMSO-normalized antiproliferation ([2]; log10[compound] (M) -5.19897): 21.3993 and 17.4773 and 18.2 and 18.6602 | DMSO-normalized antiproliferation ([2]; log10[compound] (M) -5.69897): 16.8112 and 15.7934 and 16.8516 and 16.7935 | DMSO-normalized antiproliferation ([2]; log10[compound] (M) -5.69897, replicate values): 4.6597 and 4.418 and 4.149 and 3.87 | DMSO-normalized antiproliferation ([2]; log10[compound] (M) -6.19897): 20.0987 and 17.9241 and 20.6309 and 19.478 | DMSO-normalized antiproliferation ([2]; log10[compound] (M) -6.19897, replicate values): 5.446 and 5.94 and 6.406 and 4.294 | DMSO-normalized antiproliferation ([2]; log10[compound] (M) -6.69897): 25.9066 and 20.9075 and 21.5913 and 21.1711 | DMSO-normalized antiproliferation ([2]; log10[compound] (M) -6.69897, replicate values): 8.244 and 7.637 and 8.006 and 6.772 | DMSO-normalized antiproliferation ([2]; log10[compound] (M) -7.19897): 27.2696 and 25.1897 and 32.757 and 26.1725 | DMSO-normalized antiproliferation ([2]; log10[compound] (M) -7.19897, replicate values): 9.134 and 8.1 and 7.928 and 7.914 | DMSO-normalized antiproliferation ([2]; log10[compound] (M) -7.69897): 32.5281 and 28.8466 and 33.2484 and 29.8055 | DMSO-normalized antiproliferation ([2]; log10[compound] (M) -7.69897, replicate values): 23.295 and 23.6499 and 25.1438 and 20.7638 | DMSO-normalized antiproliferation ([2]; log10[compound] (M) -8.19897): 71.5602 and 70.7086 and 72.3533 and 72.4741 | DMSO-normalized antiproliferation ([2]; log10[compound] (M) -8.19897, replicate values): 58.7893 and 63.6738 and 62.8905 and 55.3819 | DMSO-normalized antiproliferation ([2]; log10[compound] (M) -8.69897): 90.0484 and 84.5598 and 93.7922 and 91.6223 | DMSO-normalized antiproliferation ([2]; log10[compound] (M) -8.69897, replicate values): 97.0333 and 109.013 and 119.265 and 75.6713 | DMSO-normalized antiproliferation ([2]; log10[compound] (M) -9.19897): 99.7014 and 102.892 and 91.8028 and 106.019 | DMSO-normalized antiproliferation ([2]; log10[compound] (M) -9.19897, replicate values): 104.958 and 110.142 and 126.275 and 110.446 | DMSO-normalized antiproliferation ([2]; log10[compound] (M) -9.69897, replicate values): 77.7582 and 88.137 and 113.958 and 92.6055 | DMSO-normalized antiproliferation ([2]; log10[compound] (M) -10.199, replicate values): 96.7023 and 108.197 and 96.9121 and 90.9372 | Degradation of FKBP12F36V-Nluc (in words) [3]: potent degradation
